System: G. duodenalis BRIS/91/HEPU/1279
Test: Primary Giardia screen at 10 µM (live-cell imaging, automated counting)
Assay type: cell-based, Giardia duodenalis
Details: for % Inhibition n=1 48h / % Inhibition n=1 24h: first singlicate assay; for % Inhibition n=2 24h / % Inhibition n=2 48h: re-assessment
Summary of the method: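 One concentration, 10 μM, is screened per compound in singlicate under microaerophilic gas (3% O2, 5% CO2, N2). Inhibition comes from automated image-based counts at 24 and 48 h, relative to 0.2% DMSO controls.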

Compound	% Inhibition n=1 48h [%]	other results
O=C(CCC(=O)N1CCCN(c2nc3cccnc3s2)CC1)NCCc1c[nH]c2ccccc12 [SN00795593]	0.0	
O=C(COc1ccccc1)N1CCCN(c2cccnn2)CC1 [SN00772032]	1.9	
NC(=O)c1cn(Cc2nc(-c3ccoc3)no2)nc1-c1ccccc1 [SN00770936]	0.0	
CCc1ccc(-n2c(CN3CCN(S(C)(=O)=O)CC3)nc3cccnc32)cc1 [SN00796120]	7.0	
Cn1c(=O)[nH]c(=O)c2c1nc(N1CCNCC1)n2Cc1ccc(Br)cc1 [SN00776836]	0.0	
COc1ccc(CNC(=O)c2ccc(-c3noc(C4CCCN(C(=O)c5ccccc5)C4)n3)cc2)cc1 (stereo not drawn) [SN00797402]	14.7	
O=C(CCc1ccc(F)cc1)Nc1ccn(Cc2ccccn2)n1 [SN00775953]	0.0	
CCc1nc(C)c2c(C)c(C(=O)N3CCN(c4ncccn4)CC3)sc2n1 [SN00779630]	22.3	
O=C1COc2ccc(Cl)cc2N1Cc1nc(Cn2cnc3ccccc3c2=O)no1 [SN00789336]	0.0	
Cc1ccc(-c2nc3ncccn3c2NC(=O)c2ccc(C(F)(F)F)cc2)cc1 [SN00793355]	13.4	
O=C([C@H]1C[C@H]2CCCN2[C@@]12C(=O)Nc1ccccc12)N1CCN(c2ccccc2)CC1 [SN00787657]	16.0	
Cn1nc(-c2nnc(-c3ccccc3Cl)o2)c2c1CCN(C(=O)c1ccc(F)c(F)c1)C2 [SN00796834]	25.5	Average % Inhibition 24h: 6.4%; % Inhibition n=1 24h: 12.9%; % Inhibition n=2 24h: 0.0%; Average % Inhibition 48h: 12.8%; % Inhibition n=2 48h: 0.0%
O=S(=O)(Cc1ccccc1)Nc1cccc(-c2nnc(Cc3ccc4c(c3)OCO4)o2)c1 [SN00795993]	80.2	Average % Inhibition 24h: 17.2%; % Inhibition n=1 24h: 34.4%; % Inhibition n=2 24h: 0.0%; Average % Inhibition 48h: 46.9%; % Inhibition n=2 48h: 13.6%
COc1cccc(C(=O)n2nc(-c3cccnc3)nc2NCc2ccc(C)cc2)c1 [SN00788624]	24.5	
COc1ccc(-c2cc3nc4c(c(=O)n3[nH]2)CNCC4)cc1 [SN00800876]	0.0	
Cn1cc2c(n1)c(=O)n(Cc1ccccc1)c(=O)n2CC(=O)Nc1cccc(F)c1 [SN00796169]	46.9	Average % Inhibition 24h: 30.6%; % Inhibition n=1 24h: 37.8%; % Inhibition n=2 24h: 23.4%; Average % Inhibition 48h: 62.8%; % Inhibition n=2 48h: 78.6%
Cc1c(C(=O)N2CCCC2Cn2cccn2)cnn1-c1ccccc1 (stereo not drawn) [SN00774604]	16.2	
CCn1cc(CN(C)C(=O)c2cnn3c(C(F)F)cc(-c4ccc(OC)cc4)nc23)c(C)n1 [SN00783837]	29.0	
Cc1ccccc1NC(=O)c1ccc2c(c1)CCN2S(C)(=O)=O [SN00785973]	31.2	
Cn1ncc2c(N3CCCN(C4CC4)CC3)ncnc21 [SN00782468]	9.8	
CCC(=O)Nc1cccc(-c2noc(C3CCCN(C(=O)c4ccc(C)c(F)c4)C3)n2)c1 (stereo not drawn) [SN00797220]	14.6	
CCC(C)NC(=O)CC1Sc2ncccc2N(C)C1=O (stereo not drawn) [SN00799120]	11.7	
CNC(=O)N1CCC(C2CCN(C(=O)c3ccncc3)CC2)C1 (stereo not drawn) [SN00801593]	4.5	
CN(Cc1ccccc1)c1c2c(nc3nncn13)CCC2 [SN00785855]	14.3	
Nc1cc(C2CCNCC2)[nH]n1 [SN00781241]	7.2	
CC(=O)N1CCc2cc(C(=O)CN3CC(C)CC(C)C3)ccc21 (stereo not drawn) [SN00785210]	19.3	

Compound	% Inhibition n=1 48h [%]	other results
Cc1cccc(CC(=O)N2CCN(c3nc4cccnc4n(Cc4ccccc4)c3=O)CC2)c1 [SN00797319]	38.8	
CCc1ncncc1C(=O)N1CCN(Cc2nc(C(C)C)no2)CC1 [SN00779817]	26.6	
CCn1nccc1C(=O)NC1CCN(c2nccnc2OC)C1 (stereo not drawn) [SN00801093]	0.0	
COc1c(C(=O)Nc2ccccc2)oc2ccc(NC(=O)C3CCCCC3)cc12 [SN00798797]	3.8	
Cc1ccc(S(=O)(=O)C2(C(=O)Nc3cn[nH]c3)CCC2)cc1 [SN00778835]	0.0	
O=C(NCc1ccc2c(c1)CCN2C(=O)c1ccccc1)c1n[nH]c2c1CCc1ccccc1-2 [SN00793591]	5.7	
CCOc1cc(C2OCCn3c(-c4ccccc4)c4c(=O)n(C)c(=O)n(C)c4c32)ccc1O (stereo not drawn) [SN00786012]	8.5	
O=C(Cc1noc(-c2ccoc2)n1)NC1CCCCC1 [SN00773041]	3.1	
CC(=O)c1cc2c(cc1NC(=O)c1cn(-c3ccc(F)cc3)nn1)OCO2 [SN00786071]	7.4	
Cc1cc(NC(=O)c2ccc([N+](=O)[O-])cc2)n(-c2nc3ccccc3[nH]2)n1 [SN00776157]	6.0	
CS(=O)(=O)N1CCCc2cc(-c3csc(N)n3)ccc21 [SN00777047]	7.2	
COc1ccc(S(=O)(=O)Nc2cc3c(cc2NCc2ccccc2)n(C)c(=O)n3C)cc1OC [SN00784765]	14.1	
COc1ccc(-c2noc(CC(=O)N3CCN(c4ccccn4)CC3)n2)cc1 [SN00787724]	23.4	
Cc1nc(N2CCCC2)c2c(C)c(C(=O)Nc3ccccc3Cl)sc2n1 [SN00793643]	49.2	
Cc1nc(C2CCN(C(=O)Nc3ccccc3)CC2)sc1C(=O)N1CCCCCC1 [SN00798241]	0.0	
Cc1cccc(-c2nc(-c3ccc(NS(C)(=O)=O)cc3)no2)c1 [SN00795250]	9.2	
CCn1c(=O)c(N2CCCC(C(=O)NCCc3c[nH]c4ccccc34)C2)nc2ccccc21 (stereo not drawn) [SN00790077]	9.8	
Fc1ccc(-c2cc(C(F)(F)F)nc(NCc3ccco3)n2)cc1 [SN00784252]	2.3	
CCCn1ccc2sc(C)c(C(=O)NC3CCCCC3)c2c1=O [SN00799943]	16.0	
O=C(NCCN1CCCCCC1=O)C1CCCN1C(=O)C1CCCC1 (stereo not drawn) [SN00774624]	0.0	
O=S(=O)(c1ccc(-c2cnc(C3CCC3)o2)s1)N1CCC2(CC1)OCCO2 [SN00795093]	7.0	
Cc1ccc(-c2nc3ccccc3n2Cc2cccc(F)c2)o1 [SN00788939]	16.3	
Cc1nn(Cc2ccccc2)c2sc(C(=O)N3CCN(C(=O)N4CCCCC4)CC3)cc12 [SN00774391]	14.0	
c1ccc2sc(N3CCCC3c3nnc4n3CCCCC4)nc2c1 (stereo not drawn) [SN00771886]	12.0	
CCCCS(=O)(=O)N1CCC(c2nnnn2-c2ccc(C)cc2)CC1 [SN00785962]	0.0	
CCC1(N2CCN(C)CC2)CCN(S(=O)(=O)c2ccccc2)C1 (stereo not drawn) [SN00802274]	2.6	

Compound	% Inhibition n=1 48h [%]	other results
O=C(Nc1ccc2c(c1)OCO2)C1CCN(Cc2nnnn2-c2ccccc2)CC1 [SN00776590]	4.9	
Cc1cccc2c1NC1(CCN(S(=O)(=O)c3ccc(C(C)(C)C)cc3)CC1)NC2=O [SN00802737]	13.3	
Cc1ccc(NC(=O)c2cc(-c3ccc4c(c3)OCCO4)on2)cc1C [SN00786283]	2.9	
Cc1nnc(CN2CCN(CC(O)COCc3ccco3)CC2)n1C (stereo not drawn) [SN00772332]	57.1	Average % Inhibition 24h: 0.0%; % Inhibition n=1 24h: 0.0%; % Inhibition n=2 24h: 0.0%; Average % Inhibition 48h: 28.5%; % Inhibition n=2 48h: 0.0%
Cc1nc(-c2cc(S(=O)(=O)N3CCCCCC3)c(C)s2)sc1C [SN00797236]	11.8	
O=c1n(Cc2cccc(Br)c2)nc2c(S(=O)(=O)N3CCOCC3)cccn12 [SN00798020]	0.0	
COc1ccc(-n2nnc(-c3nsc(Nc4ccc(Cl)cc4)n3)c2C)cc1 [SN00798137]	11.6	
O=C(c1nnn(-c2ccccc2Cl)c1-c1ccncc1)N1CCc2ccccc2C1 [SN00796355]	30.9	
CCN1C(=O)C(=O)N(Cc2coc(-c3ccc(C)cc3)n2)C1=O [SN00778011]	28.7	
CC(C)Cn1nc(C(=O)N2CCCCC2c2nc3ccccc3s2)c2ccccc2c1=O (stereo not drawn) [SN00774515]	2.8	
Cc1nc(N2CCOCC2)c2c(C(=O)N3CCCC3)c(C)oc2n1 [SN00788445]	0.0	
Cc1cc(-c2cc(S(=O)(=O)N(CCN(C)C)Cc3cccs3)c(C)s2)[nH]n1 [SN00798340]	13.6	
O=C(NCC1CN2CCCC2CO1)c1ccccc1-n1cnnn1 (stereo not drawn) [SN00781319]	0.0	
Clc1ccc(Nc2nc3ccccc3n3nnnc23)cc1 [SN00784679]	4.0	
CCOc1ccccc1OC1CCN(c2ncnc3nc[nH]c23)CC1 [SN00780570]	31.1	
Cc1cccc(C(=O)Nc2cnc(N3CCNCC3)c(C(=O)N(CC(C)C)CC(C)C)c2)c1 [SN00795320]	14.5	
COc1cc(-c2c(Nc3ccccc3)oc3c2c(=O)n(C)c(=O)n3C)cc(OC)c1OC [SN00788648]	0.0	
CC1Cc2cc(S(=O)(=O)N3CCn4c3nc3ccccc34)ccc2N1C(=O)C1CCC1 (stereo not drawn) [SN00788031]	10.8	
Cc1csc(C2CCCCN2)n1 (stereo not drawn) [SN00781548]	6.1	
Cc1cc(N2CCN(c3ccccc3F)CC2)n2cnnc2n1 [SN00785845]	30.4	
Cc1ccc(-c2nc(C)sc2CC(=O)N2CCN(Cc3nc(N)c4ccccc4n3)CC2)cc1 [SN00778718]	9.0	
Cc1cc2c(cc1S(=O)(=O)NC(C)C)N(C(=O)C1CC1)CC2 [SN00798844]	15.5	
CCCNC(=O)c1cnn2c(C(F)F)cc(-c3ccc(C)cc3)nc12 [SN00783826]	40.8	
C=CCn1c(=O)c(N2CCC(NC(=O)NC3CCCC3)CC2)nc2cccnc21 [SN00797341]	6.8	

Source: PMC9775191, “A Subset Screen of the Compounds Australia Scaffold Library Identifies 7-Acylaminodibenzoxazepinones as Potent and Selective Hits for Anti-Giardia Drug Discovery” (Biomedicines, 2022)
